Assay results reported in US20250129430A1, “HIGH ATP-AFFINITY PROTEIN AS THERAPEUTIC TARGET FOR INTRACTABLE CANCER MOLECULAR SUBTYPES AND INHIBITOR THEREOF” (VeraVerse Co., Ltd., priority 2021, published 2025).
Where a name gives a salt, the structure may show the parent alone.

Tests used:
Assay in all cases: Cell viability drug screen, 12-point dose-response AUC
Type in all cases: cell-based, human
FU97 = test system: FU97; set-up: Average Area Under the Viability Curve (AUC), AUC norm value: scale not given here; details: FU97 cells, 72 hours; for area under the viability curve (AUC), normalized: 12-point dose-response
How it was run: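 Trapezoidal AUC of a 12-point, DMSO-normalized dose-response curve. Luminescent viability was measured after 72 h of exposure at 37° C to half-log serial dilutions (0.5% DMSO control), dosed 24 h after plating FU97 cells at 5×10^3 per well.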

SNU16 = SNU16 cells, 72 hours; for area under the viability curve (AUC), normalized: 12-point dose-response
How it was run: (§1)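 Each cell line receives a twelve-point half-log titration of drug beginning 24 h after plating 5×10^3 cells per well. Following 72 h culture at 37 °C, luminescent signal is recorded and expressed versus vehicle. AUC is derived by the trapezoidal method.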

SNU638 = SNU638 cells, 72 hours; for area under the viability curve (AUC), normalized: 12-point dose-response
How it was run: as §1

MKN45 = details: 72 hours; for area under the viability curve (AUC), normalized: MKN45 cells, 12-point dose-response
How it was run: (§2)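 Gastric cancer lines seeded 5×10^3 cells/well, dosed after 24 h with half-log 12-point compound dilutions (DMSO 0.5% control), then 72 h at 37 °C. Viability by luminescence, normalized to DMSO; AUC by trapezoidal method, averaged over repeats.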

SNU216 = details: 72 hours; for area under the viability curve (AUC), normalized: SNU216 cells, 12-point dose-response
How it was run: as §2

MKN1 = MKN1 cells, 72 hours; for area under the viability curve (AUC), normalized: 12-point dose-response
How it was run: as §1

SNU601 = SNU601 cells, 72 hours; for area under the viability curve (AUC), normalized: 12-point dose-response
How it was run: as §1

SNU1 = SNU1 cells, 72 hours; for area under the viability curve (AUC), normalized: 12-point dose-response
How it was run: as §1

SNU719 = SNU719 cells, 72 hours; for area under the viability curve (AUC), normalized: 12-point dose-response
How it was run: as §2

SK4 = details: 72 hours; for area under the viability curve (AUC), normalized: SK4 cells, 12-point dose-response
How it was run: as §1

NCI_N87 = NCI_N87 cells, 72 hours; for area under the viability curve (AUC), normalized: 12-point dose-response
How it was run: as §1

YCC11 = details: 72 hours; for area under the viability curve (AUC), normalized: YCC11 cells, 12-point dose-response
How it was run: as §1

YCC2 = YCC2 cells, 72 hours; for area under the viability curve (AUC), normalized: 12-point dose-response
How it was run: as §1

Hs746T = details: 72 hours; for area under the viability curve (AUC), normalized: Hs746T cells, 12-point dose-response
How it was run: as §1

YCC3 = YCC3 cells, 72 hours; for area under the viability curve (AUC), normalized: 12-point dose-response
How it was run: as §1

SNU1967 = SNU1967 cells, 72 hours; for area under the viability curve (AUC), normalized: 12-point dose-response
How it was run: as §1

NCC20 = NCC20 cells, 72 hours; for area under the viability curve (AUC), normalized: 12-point dose-response
How it was run: as §1

NCC19 = NCC19 cells, 72 hours; for area under the viability curve (AUC), normalized: 12-point dose-response
How it was run: as §1

AGS = details: 72 hours; for area under the viability curve (AUC), normalized: AGS cells, 12-point dose-response
How it was run: as §2

NCC24 = NCC24 cells, 72 hours; for area under the viability curve (AUC), normalized: 12-point dose-response
How it was run: as §1

SNU1750 = details: 72 hours; for area under the viability curve (AUC), normalized: SNU1750 cells, 12-point dose-response
How it was run: as §1

MKN74 = MKN74 cells, 72 hours; for area under the viability curve (AUC), normalized: 12-point dose-response
How it was run: as §2

NCC59 = NCC59 cells, 72 hours; for area under the viability curve (AUC), normalized: 12-point dose-response
How it was run: as §1

SNU668 = details: 72 hours; for area under the viability curve (AUC), normalized: SNU668 cells, 12-point dose-response
How it was run: as §1

SNU620 = SNU620 cells, 72 hours; for area under the viability curve (AUC), normalized: 12-point dose-response
How it was run: as §1

SNU484 = details: 72 hours; for area under the viability curve (AUC), normalized: SNU484 cells, 12-point dose-response
How it was run: as §1

MKN28 = MKN28 cells, 72 hours; for area under the viability curve (AUC), normalized: 12-point dose-response
How it was run: as §1

KATO3 = KATO3 cells, 72 hours; for area under the viability curve (AUC), normalized: 12-point dose-response
How it was run: as §1

OCUM1 = OCUM1 cells, 72 hours; for area under the viability curve (AUC), normalized: 12-point dose-response
How it was run: as §1

## CC[C@@]1(O)C(=O)OCc2c1cc1n(c2=O)Cc2cc3c(CN(C)C)c(O)ccc3nc2-1 [Topotecan HCI, Topotecan HCl]
FU97
  Average Area Under the Viability Curve (AUC), AUC norm value: −0.8445
SNU16
  Average Area Under the Viability Curve (AUC), AUC norm value: −0.5292
SNU638
  Average Area Under the Viability Curve (AUC), AUC norm value: −0.7133
MKN45; MKN45 cells (non-SEM subtype)
  Average Area Under the Viability Curve (AUC), AUC norm value: 1.195
SNU216; SNU216 cells (non-SEM subtype)
  Average Area Under the Viability Curve (AUC), AUC norm value: 1.123
MKN1
  Average Area Under the Viability Curve (AUC), AUC norm value: −0.9954
SNU601
  Average Area Under the Viability Curve (AUC), AUC norm value: −0.5589
SNU1
  Average Area Under the Viability Curve (AUC), AUC norm value: −0.6163
SNU719
  Average Area Under the Viability Curve (AUC), AUC norm value: 3.069
SK4; SK4 cells (SEM subtype)
  Average Area Under the Viability Curve (AUC), AUC norm value: −0.4515
NCI_N87
  Average Area Under the Viability Curve (AUC), AUC norm value: 2.857
YCC11; YCC11 cells (SEM subtype)
  Average Area Under the Viability Curve (AUC), AUC norm value: −0.573
YCC2
  Average Area Under the Viability Curve (AUC), AUC norm value: 0.1906
Hs746T; Hs746T cells (SEM subtype)
  Average Area Under the Viability Curve (AUC), AUC norm value: 0.4587
YCC3
  Average Area Under the Viability Curve (AUC), AUC norm value: 1.923
SNU1967
  Average Area Under the Viability Curve (AUC), AUC norm value: −2.648
NCC20
  Average Area Under the Viability Curve (AUC), AUC norm value: −2.367
NCC19
  Average Area Under the Viability Curve (AUC), AUC norm value: 2.896
AGS; AGS cells (non-SEM subtype)
  Average Area Under the Viability Curve (AUC), AUC norm value: −2.159
NCC24
  Average Area Under the Viability Curve (AUC), AUC norm value: 0.0033
SNU1750; SNU1750 cells (SEM subtype)
  Average Area Under the Viability Curve (AUC), AUC norm value: 0.2818
MKN74
  Average Area Under the Viability Curve (AUC), AUC norm value: 0
NCC59
  Average Area Under the Viability Curve (AUC), AUC norm value: 1.957
SNU668; SNU668 cells (SEM subtype)
  Average Area Under the Viability Curve (AUC), AUC norm value: −1.128
SNU620
  Average Area Under the Viability Curve (AUC), AUC norm value: −0.7611
SNU484; SNU484 cells (SEM subtype)
  Average Area Under the Viability Curve (AUC), AUC norm value: 1.128
MKN28
  Average Area Under the Viability Curve (AUC), AUC norm value: 1.259
KATO3
  Average Area Under the Viability Curve (AUC), AUC norm value: 5.01
OCUM1
  Average Area Under the Viability Curve (AUC), AUC norm value: −1.681

## CC(/C=C/C(=O)NO)=C\[C@@H](C)C(=O)c1ccc(N(C)C)cc1 [Trichostatin A (TSA), Trichostatin A]
FU97
  area under the viability curve (AUC), normalized: −1.181
SNU16
  area under the viability curve (AUC), normalized: 1.141
SNU638
  area under the viability curve (AUC), normalized: −0.2758
MKN45
  area under the viability curve (AUC), normalized: 2.215
SNU216
  area under the viability curve (AUC), normalized: 0
MKN1
  area under the viability curve (AUC), normalized: 0.4223
SNU601
  area under the viability curve (AUC), normalized: 1.155
SNU1
  area under the viability curve (AUC), normalized: −0.9946
SNU719
  area under the viability curve (AUC), normalized: 1.883
SK4
  area under the viability curve (AUC), normalized: 0.7897
NCI_N87
  area under the viability curve (AUC), normalized: −0.01232
YCC11
  area under the viability curve (AUC), normalized: −0.2695
YCC2
  area under the viability curve (AUC), normalized: 0.2017
Hs746T
  area under the viability curve (AUC), normalized: 0.6621
YCC3
  area under the viability curve (AUC), normalized: 1.17
SNU1967
  area under the viability curve (AUC), normalized: −1.472
NCC20
  area under the viability curve (AUC), normalized: −1.842
NCC19
  area under the viability curve (AUC), normalized: −0.3026
AGS
  area under the viability curve (AUC), normalized: −1.137
NCC24
  area under the viability curve (AUC), normalized: −1.307
SNU1750
  area under the viability curve (AUC), normalized: −1.0771
MKN74
  area under the viability curve (AUC), normalized: 0.3005
NCC59
  area under the viability curve (AUC), normalized: 1.784
SNU668
  area under the viability curve (AUC), normalized: 0.1344
SNU620
  area under the viability curve (AUC), normalized: −1.343
SNU484
  area under the viability curve (AUC), normalized: 0.4515
MKN28
  area under the viability curve (AUC), normalized: −0.6515
KATO3
  area under the viability curve (AUC), normalized: −0.1555
OCUM1
  area under the viability curve (AUC), normalized: 0.1474

## CC(C)[C@]12O[C@H]1[C@@H]1O[C@]13[C@]1(O[C@H]1C[C@H]1C4=C(CC[C@@]13C)C(=O)OC4)[C@@H]2O [Triptolide]
FU97
  area under the viability curve (AUC), normalized: −0.6238
SNU16
  area under the viability curve (AUC), normalized: 1.9544
SNU638
  area under the viability curve (AUC), normalized: 0.828
MKN45
  area under the viability curve (AUC), normalized: 1.157
SNU216
  area under the viability curve (AUC), normalized: 1.18
MKN1
  area under the viability curve (AUC), normalized: 0.6772
SNU601
  area under the viability curve (AUC), normalized: 0.3854
SNU1
  area under the viability curve (AUC), normalized: −0.1207
SNU719
  area under the viability curve (AUC), normalized: 4.573
SK4
  area under the viability curve (AUC), normalized: −1.232
NCI_N87
  area under the viability curve (AUC), normalized: −0.7868
YCC11
  area under the viability curve (AUC), normalized: 0.4144
YCC2
  area under the viability curve (AUC), normalized: 0.6309
Hs746T
  area under the viability curve (AUC), normalized: 0.17
YCC3
  area under the viability curve (AUC), normalized: 2.62
SNU1967
  area under the viability curve (AUC), normalized: −0.4902
NCC20
  area under the viability curve (AUC), normalized: 0
NCC19
  area under the viability curve (AUC), normalized: −1.507
AGS
  area under the viability curve (AUC), normalized: −1.267
NCC24
  area under the viability curve (AUC), normalized: −1.656
SNU1750
  area under the viability curve (AUC), normalized: −0.4213
MKN74
  area under the viability curve (AUC), normalized: −0.8231
NCC59
  area under the viability curve (AUC), normalized: 0.356
SNU668
  area under the viability curve (AUC), normalized: −1.284
SNU620
  area under the viability curve (AUC), normalized: −0.986
SNU484
  area under the viability curve (AUC), normalized: −1.234
MKN28
  area under the viability curve (AUC), normalized: −0.03132
KATO3
  area under the viability curve (AUC), normalized: 5.715
OCUM1
  area under the viability curve (AUC), normalized: 1.992
